Data published in PubChem BioAssay (NCI).
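Test compounds were applied to cells in 96-well plates for 48 hours at 5 doses. GI50 marks 50% less growth. At the TGI there is no net growth.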

Legend:
Experiment in all cases: DTP human tumour cell line panel, 48 h
786-0 renal = system: 786-0 renal
A498 renal = system: A498 renal
A549 NSCLC = system: A549 NSCLC
ACHN renal = system: ACHN renal
BT-549 breast = system: BT-549 breast
CAKI-1 renal = system: CAKI-1 renal
CCRF-CEM leukemia = system: CCRF-CEM leukemia
COLO 205 colon = system: COLO 205 colon
DU-145 prostate = system: DU-145 prostate
EKVX NSCLC = system: EKVX NSCLC
HCC-2998 colon = system: HCC-2998 colon
HCT-116 colon = system: HCT-116 colon
HCT-15 colon = system: HCT-15 colon
HL-60(TB) leukemia = system: HL-60(TB) leukemia
HOP-62 NSCLC = system: HOP-62 NSCLC
HOP-92 NSCLC = system: HOP-92 NSCLC
HS 578T breast = system: HS 578T breast
HT29 colon = system: HT29 colon
IGROV1 ovarian = system: IGROV1 ovarian
K-562 leukemia = system: K-562 leukemia
KM12 colon = system: KM12 colon
LOX IMVI melanoma = system: LOX IMVI melanoma
M14 melanoma = system: M14 melanoma
MALME-3M melanoma = system: MALME-3M melanoma
MCF7 breast = system: MCF7 breast
MDA-MB-231 breast = system: MDA-MB-231 breast
MDA-MB-435 = system: MDA-MB-435
MOLT-4 leukemia = system: MOLT-4 leukemia
NCI-H226 lung = system: NCI-H226 lung
NCI-H23 lung = system: NCI-H23 lung
NCI-H460 lung = system: NCI-H460 lung
NCI-H522 lung = system: NCI-H522 lung
NCI/ADR-RES ovarian = system: NCI/ADR-RES ovarian
OVCAR-3 ovarian = system: OVCAR-3 ovarian
OVCAR-4 ovarian = system: OVCAR-4 ovarian
OVCAR-5 ovarian = system: OVCAR-5 ovarian
OVCAR-8 ovarian = system: OVCAR-8 ovarian
PC-3 prostate = system: PC-3 prostate
RPMI-8226 leukemia = system: RPMI-8226 leukemia
RXF 393 renal = system: RXF 393 renal
SF-268 CNS = system: SF-268 CNS
SF-295 CNS = system: SF-295 CNS
SF-539 CNS = system: SF-539 CNS
SK-MEL-2 melanoma = system: SK-MEL-2 melanoma
SK-MEL-28 melanoma = system: SK-MEL-28 melanoma
SK-MEL-5 melanoma = system: SK-MEL-5 melanoma
SK-OV-3 ovarian = system: SK-OV-3 ovarian
SN12C renal = system: SN12C renal
SNB-19 CNS = system: SNB-19 CNS
SNB-75 CNS = system: SNB-75 CNS
SR leukemia = system: SR leukemia
SW-620 colon = system: SW-620 colon
T-47D breast = system: T-47D breast
TK-10 renal = system: TK-10 renal
U251 CNS = system: U251 CNS
UACC-257 melanoma = system: UACC-257 melanoma
UACC-62 melanoma = system: UACC-62 melanoma
UO-31 renal = system: UO-31 renal

Structure (SMILES): CCC(CO)Nc1nc2ccc(Cl)cc2c2ccccc12 (stereo unspecified)
- GI50 (786-0 renal): 7.37 µM
- TGI (786-0 renal): 20.1 µM
- GI50 (A498 renal): 4.6 µM
- TGI (A498 renal): 16 µM
- GI50 (A549 NSCLC): 6.05 µM
- TGI (A549 NSCLC): 20.4 µM
- GI50 (ACHN renal): 9.05 µM
- TGI (ACHN renal): 21.1 µM
- GI50 (BT-549 breast): 10.1 µM
- TGI (BT-549 breast): 21.7 µM
- GI50 (CAKI-1 renal): 2.82 µM
- TGI (CAKI-1 renal): 14.6 µM
- GI50 (CCRF-CEM leukemia): 4.24 µM
- TGI (CCRF-CEM leukemia): 17.4 µM
- GI50 (COLO 205 colon): 11.9 µM
- TGI (COLO 205 colon): 25.6 µM
- GI50 (DU-145 prostate): 12.8 µM
- TGI (DU-145 prostate): 25.4 µM
- GI50 (EKVX NSCLC): 6.23 µM
- TGI (EKVX NSCLC): 20.2 µM
- GI50 (HCC-2998 colon): 2.82 µM
- TGI (HCC-2998 colon): 10.6 µM
- GI50 (HCT-116 colon): 10.8 µM
- TGI (HCT-116 colon): 22.7 µM
- GI50 (HCT-15 colon): 3.7 µM
- TGI (HCT-15 colon): 15.4 µM
- GI50 (HL-60(TB) leukemia): 7.62 µM
- TGI (HL-60(TB) leukemia): 63.3 µM
- GI50 (HOP-62 NSCLC): 7.95 µM
- TGI (HOP-62 NSCLC): 21 µM
- GI50 (HOP-92 NSCLC): 3.06 µM
- TGI (HOP-92 NSCLC): 14.8 µM
- GI50 (HS 578T breast): 8.82 µM
- TGI (HS 578T breast): 34.9 µM
- GI50 (HT29 colon): 4.58 µM
- TGI (HT29 colon): 15.6 µM
- GI50 (IGROV1 ovarian): 11.2 µM
- TGI (IGROV1 ovarian): 23.5 µM
- GI50 (K-562 leukemia): 3.01 µM
- TGI (K-562 leukemia): 11.5 µM
- GI50 (KM12 colon): 5.3 µM
- TGI (KM12 colon): 17.1 µM
- GI50 (LOX IMVI melanoma): 6.17 µM
- TGI (LOX IMVI melanoma): 19.4 µM
- GI50 (M14 melanoma): 12.8 µM
- TGI (M14 melanoma): 25.6 µM
- GI50 (MALME-3M melanoma): 15.7 µM
- TGI (MALME-3M melanoma): 29.3 µM
- GI50 (MCF7 breast): 12.2 µM
- TGI (MCF7 breast): 26.1 µM
- GI50 (MDA-MB-231 breast): 4.9 µM
- TGI (MDA-MB-231 breast): 15.9 µM
- GI50 (MDA-MB-435): 6.14 µM
- TGI (MDA-MB-435): 18.8 µM
- GI50 (MOLT-4 leukemia): 3.55 µM
- TGI (MOLT-4 leukemia): 15.2 µM
- GI50 (NCI-H226 lung): 11.4 µM
- TGI (NCI-H226 lung): 31.7 µM
- GI50 (NCI-H23 lung): 12.3 µM
- TGI (NCI-H23 lung): 25.9 µM
- GI50 (NCI-H460 lung): 3.93 µM
- TGI (NCI-H460 lung): 14.8 µM
- GI50 (NCI-H522 lung): 8.42 µM
- TGI (NCI-H522 lung): 21.5 µM
- GI50 (NCI/ADR-RES ovarian): 5.95 µM
- TGI (NCI/ADR-RES ovarian): 21.4 µM
- GI50 (OVCAR-3 ovarian): 12.2 µM
- TGI (OVCAR-3 ovarian): 24.7 µM
- GI50 (OVCAR-4 ovarian): 11.9 µM
- TGI (OVCAR-4 ovarian): 25.5 µM
- GI50 (OVCAR-5 ovarian): 5.4 µM
- TGI (OVCAR-5 ovarian): 19.7 µM
- GI50 (OVCAR-8 ovarian): 11.4 µM
- TGI (OVCAR-8 ovarian): 29.3 µM
- GI50 (PC-3 prostate): 10.3 µM
- TGI (PC-3 prostate): 24.9 µM
- GI50 (RPMI-8226 leukemia): 4.04 µM
- TGI (RPMI-8226 leukemia): 26.4 µM
- GI50 (RXF 393 renal): 2.3 µM
- TGI (RXF 393 renal): 5.93 µM
- GI50 (SF-268 CNS): 10.7 µM
- TGI (SF-268 CNS): 23.4 µM
- GI50 (SF-295 CNS): 2.81 µM
- TGI (SF-295 CNS): 15.3 µM
- GI50 (SF-539 CNS): 10.4 µM
- TGI (SF-539 CNS): 22.2 µM
- GI50 (SK-MEL-2 melanoma): 14.5 µM
- TGI (SK-MEL-2 melanoma): 28.4 µM
- GI50 (SK-MEL-28 melanoma): 14.3 µM
- TGI (SK-MEL-28 melanoma): 27.3 µM
- GI50 (SK-MEL-5 melanoma): 11.2 µM
- TGI (SK-MEL-5 melanoma): 23.3 µM
- GI50 (SK-OV-3 ovarian): 11.8 µM
- TGI (SK-OV-3 ovarian): 24.1 µM
- GI50 (SN12C renal): 11.5 µM
- TGI (SN12C renal): 25.3 µM
- GI50 (SNB-19 CNS): 8.53 µM
- TGI (SNB-19 CNS): 21.3 µM
- GI50 (SNB-75 CNS): 4.38 µM
- TGI (SNB-75 CNS): 18 µM
- GI50 (SR leukemia): 1.57 µM
- TGI (SR leukemia): 13.5 µM
- GI50 (SW-620 colon): 13.5 µM
- TGI (SW-620 colon): 26.9 µM
- GI50 (T-47D breast): 6.13 µM
- TGI (T-47D breast): 20.9 µM
- GI50 (TK-10 renal): 3.91 µM
- TGI (TK-10 renal): 18 µM
- GI50 (U251 CNS): 5.18 µM
- TGI (U251 CNS): 18.3 µM
- GI50 (UACC-257 melanoma): 15.3 µM
- TGI (UACC-257 melanoma): 28.6 µM
- GI50 (UACC-62 melanoma): 4.71 µM
- TGI (UACC-62 melanoma): 17 µM
- GI50 (UO-31 renal): 4.01 µM
- TGI (UO-31 renal): 16.3 µM
